# From patent US20250082633A1, “COMPOUNDS AND METHODS FOR MODULATING SPLICING” (REMIX THERAPEUTICS INC., priority 2021, published 2025)
# Where two headings read alike, the source gives them in different places.
# Legend:
# [1] = system: HTT mRNA; assay: RT-qPCR splicing assay, HTT canonical (CJ) and alternative (AJ) junction mRNA; assay type: cell-based; conditions: Homo sapiens; for IC50: read-out: HTT CJ IC50; for AC50: read-out: HTT AJ AC50
# How it was run: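 Splice-junction mRNAs (CJ, AJ) measured by TaqMan one-step RT-qPCR on cell lysates, using PPIA as reference for adherent A673 and GAPDH or GUSB for K562. Cells exposed for 24 h to 11 threefold concentrations up to 10 uM final, with DMSO at or below 0.25%.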
# [2] = system: HiBiT-tagged MYB protein in K562 cells; assay: HiBit protein abundance assay, MYB; assay type: cell-based, human; conditions: K562 HiBiT-modified cells, 24 hours, luminescence
# Description: Compounds described herein were used to screen for effects on quantitative protein abundance using a HiBit assay system (Promega). Quantitative protein abundance was determined by measuring the protein levels of HiBit-tagged protein targets expressed in cell culture via luminescence using the Nano-Glo HiBiT Lytic Detection System, which uses a split complementation assay format to reconstitute NanoBiT enzyme to generate a luminescent signal. A protein abundance assay was developed such that endogenous protein targets could be modified with the HiBiT peptide tag and their abundance could be assessed after compound treatment. Briefly, K562 cell lines containing a HiBiT-modification were treated with various compounds described herein (e.g., compounds of Formulas (I), (II), or (III)). After treatment for 24 hours, the protein abundance of a specific target was determined by measuring luminescence. • Promega Nano-Glo HiBiT Lytic Detection System (cat #N3030) • Corning 384-well TC-treated microplates (cat #3570) • Synthego Engineered Cells Knock-In Clones [table] Cells were maintained in IMDM with 10% FBS. Before the assay, cells were diluted with phenolphthalein-free growth media (IMDM+1% FBS media) and were seeded in a 384-well plate at a density of 10000 cells/well (for each cell line listed in Table 6). Each compound was prepared as a 10-point 3-fold serial dilution in DMSO with the top dose at a final concentration of 10 μM in the well. Unmodified K562 cells were added at the previously specified density with DMSO to serve as an assay baseline and positive control (PC) and DMSO only with the respective modified cell lines was added to the negative control (NC) columns. Final DMSO concentration was kept at or below 0.25%. Treated cell plates were placed in an incubator at 37° C. with 5% CO2 for 24 hours. After 24 hours, 25 μL of Complete HiBit Lytic reagent was added to each well at room temperature (e.g. one plate requiring 10 mL Lytic Buffer, 100 μL LgBiT Protein, 200 μL Lytic Substrate), shaken for 5 minutes at 600 RPM, then left to sit for 10 minutes for signal to stabilize before reading on a Spark Cyto plate reader (Tecan) with a 500 ms measurement time. To determine compound effects on protein abundance of each target in Table 6, the percent response for each respective cell line was calculated at each compound concentration as follows: For the normalized response at each concentration, a four-parameter logistical regression was fit to the data and the response was interpolated at the 50% value to determine a concentration for protein abundance at 50% (IC50) the untreated control.
# [3] = decrease in CJ mRNA levels, larger panel of genes, Table 3
# [4] = decrease in canonical junction mRNA, A673 or K562 cells, 24 hours treatment, Table 2
# [5] = increase in alternative junction mRNA, A673 or K562 cells, 24 hours treatment, Table 2
SMILES,"IC50 [1, 3] [nM]","IC50 [1, 4] [nM]",IC50 [2] [nM],"AC50 [1, 5] [nM]",AC50 ([1]; 24 h) [nM],IC50 ([1]; 24 h) [nM],IC50 [1] [nM]
"Cc1cn2nc(-c3cc(O)c4nn(C5CCNCC5)cc4c3)cc(C)c2n1 [Compound 156, 5-(2,8-dimethylimidazo[1,2-b]pyridazin-6-yl)-2-(piperidin-4-yl)-2H-indazol-7-ol]",100 to 1000,100 to 1000,1000 to 10000,100 to 1000,,,
"Cc1ccc2nc(-c3cc(F)c4nn(C5CCNCC5)cc4c3)ccc2n1 [Compound 157, 2-[7-fluoro-2-(4-piperidyl)indazol-5-yl]-6-methyl-1,5-naphthyridine]",> 10000,> 10000,1000 to 10000,> 10000,,,
"Fc1cc(-c2ccc3ccncc3c2)cc2cn(C3CCNCC3)nc12 [Compound 158, 7-[7-fluoro-2-(4-piperidyl)indazol-5-yl]isoquinoline]",> 10000,> 10000,1000 to 10000,> 10000,,,
"COc1cc2nn(C3CCNCC3)cc2cc1-c1cc(C)c2nc(C)cn2n1 [Compound 159, 6-(6-methoxy-2-(piperidin-4-yl)-2H-indazol-5-yl)-2,8-dimethylimidazo[1,2-b]pyridazine]",> 10000,> 10000,> 10000,> 10000,,,
"Cc1cn2nc(-c3cc(F)c4nn(C5CCN(CCO)CC5)cc4c3)cc(C)c2n1 [Compound 160, 2-[4-[5-(2,8-dimethylimidazo[1,2-b]pyridazin-6-yl)-7-fluoro-indazol-2-yl]-1-piperidyl]ethanol]",,,100 to 1000,,< 100,< 100,< 100
"Fc1cc(-c2ccc3cnccc3c2)cc2cn(C3CCNCC3)nc12 [Compound 161, 6-[7-fluoro-2-(4-piperidyl)indazol-5-yl]isoquinoline]",100 to 1000,100 to 1000,1000 to 10000,1000 to 10000,,,
"Fc1cc(-c2ccc3ncccc3c2)cc2cn(C3CCNCC3)nc12 [Compound 162, 6-[7-fluoro-2-(4-piperidyl)indazol-5-yl]quinoline]",> 10000,> 10000,1000 to 10000,> 10000,,,
"Cc1ccc2cc(-c3cc(F)c4nn(C5CCNCC5)cc4c3)ccc2n1 [Compound 163, 6-[7-fluoro-2-(4-piperidyl)indazol-5-yl]-2-methyl-quinoline]",> 10000,> 10000,1000 to 10000,> 10000,,,
"Cc1ncc2cc(-c3cc(F)c4nn(C5CCNCC5)cc4c3)ccc2n1 [Compound 165, 6-[7-fluoro-2-(4-piperidyl)indazol-5-yl]-2-methyl-quinazoline]",> 10000,> 10000,> 10000,> 10000,,,
"Cc1cn2nc(-c3cc(F)c4nn([C@H]5CCNC[C@@H]5F)cc4c3)cc(C)c2n1 [Compound 167, 6-(7-fluoro-2-((3S,4S)-3-fluoropiperidin-4-yl)-2H-indazol-5-yl)-2,8-dimethylimidazo[1,2-b]pyridazine]",100 to 1000,100 to 1000,1000 to 10000,100 to 1000,,,
"Cc1cn2nc(-c3cc(F)c4nn(C5CCN(CCO)C6(CC6)C5)cc4c3)cc(C)c2n1 (centres unmarked) [Compound 180, 2-[7-[5-(2,8-dimethylimidazo[1,2-b]pyridazin-6-yl)-7-fluoro-indazol-2-yl]-4-azaspiro[2.5]octan-4-yl]ethanol]",,,100 to 1000,,< 100,< 100,< 100
"Cc1cn2nc(-c3cc(F)c4nn(C5CCN(C6CCC6)C6(CC6)C5)cc4c3)cc(C)c2n1 (centres unmarked) [Compound 186, 6-[2-(4-cyclobutyl-4-azaspiro[2.5]octan-7-yl)-7-fluoro-indazol-5-yl]-2,8-dimethyl-imidazo[1,2-b]pyridazine]",,,100 to 1000,,< 100,< 100,< 100
"Cc1cn2nc(-c3cc(F)c4nn(CC5CCNCC5)cc4c3)cc(C)c2n1 [Compound 212, 6-[7-fluoro-2-(4-piperidylmethyl)indazol-5-yl]-2,8-dimethyl-imidazo[1,2-b]pyridazine]",< 100,< 100,100 to 1000,< 100,,,

# Second part, led by results:
"IC50 [1, 3] [nM]","IC50 [1, 4] [nM]",IC50 [2] [nM],SMILES,"AC50 [1, 5] [nM]",AC50 ([1]; 24 h) [nM],IC50 ([1]; 24 h) [nM],IC50 [1] [nM]
< 100,< 100,100 to 1000,"Cc1cn2nc(-c3cc(F)c4nn(C5CCNCC5F)cc4c3)cc(C)c2n1 (centres unmarked) [Compound 166, 6-[7-fluoro-2-(3-fluoro-4-piperidyl)indazol-5-yl]-2,8-dimethyl-imidazo [1,2-b]pyridazine]",< 100,,,
< 100,< 100,100 to 1000,"Cc1cn2nc(-c3cc(F)c4nn([C@@H]5CCNC[C@H]5F)cc4c3)cc(C)c2n1 [Compound 168, 6-(7-fluoro-2-((3R,4R)-3-fluoropiperidin-4-yl)-2H-indazol-5-yl)-2,8-dimethylimidazo [1,2-b]pyridazine]",100 to 1000,,,
< 100,< 100,100 to 1000,"Cc1cn2nc(-c3cc(F)c4nn(C5CCNC6(CC6)C5)cc4c3)cc(C)c2n1 (centres unmarked) [Compound 171, 6-[2-(4-azaspiro[2.5]octan-7-yl)-7-fluoro-indazol-5-yl]-2,8-dimethyl-imidazo[1,2-b]pyridazine]",< 100,,,
< 100,< 100,< 100,Cc1cn2nc(-c3cc(F)c4nn([C@H]5CCNC6(CC6)C5)cc4c3)cc(C)c2n1 [Compound 172],< 100,,,
< 100,< 100,100 to 1000,Cc1cn2nc(-c3cc(F)c4nn([C@@H]5CCNC6(CC6)C5)cc4c3)cc(C)c2n1 [Compound 173],< 100,,,
< 100,< 100,100 to 1000,"Cc1cn2nc(-c3cc(F)c4nn(C5CCN(C)C6(CC6)C5)cc4c3)cc(C)c2n1 (centres unmarked) [Compound 174, 6-[7-fluoro-2-(4-methyl-4-azaspiro[2.5]octan-7-yl)indazol-5-yl]-2,8-dimethyl-imidazo[1,2-b]pyridazine]",< 100,,,
< 100,< 100,100 to 1000,"CCN1CCC(n2cc3cc(-c4cc(C)c5nc(C)cn5n4)cc(F)c3n2)CC12CC2 (centres unmarked) [Compound 177, 6-[2-(4-ethyl-4-azaspiro[2.5]octan-7-yl)-7-fluoro-indazol-5-yl]-2,8-dimethyl-imidazo[1,2-b]pyridazine]",< 100,,,
< 100,< 100,100 to 1000,"Cc1cn2nc(-c3cc(F)c4nn(C5CCN(CC6CC6)C6(CC6)C5)cc4c3)cc(C)c2n1 (centres unmarked) [Compound 183, 6-[2-[4-(cyclopropylmethyl)-4-azaspiro[2.5]octan-7-yl]-7-fluoro-indazol-5-yl]-2,8-dimethyl-imidazo[1,2-b]pyridazine]",< 100,,,
< 100,< 100,100 to 1000,"Cc1cn2nc(-c3cc(F)c4nn(C5CCNC6(CCC6)C5)cc4c3)cc(C)c2n1 (centres unmarked) [Compound 189, 6-[2-(5-azaspiro[3.5]nonan-8-yl)-7-fluoro-indazol-5-yl]-2,8-dimethyl-imidazo[1,2-b]pyridazine]",< 100,,,
< 100,< 100,100 to 1000,"Cc1cn2nc(-c3ccc4nn(C5CCNCC5)cc4c3)cc(C)c2n1 [Compound 192, 2,8-dimethyl-6-[2-(4-piperidyl)indazol-5-yl]imidazo[1,2-b]pyridazine]",100 to 1000,,,
